For data set [1], the system named is autophagic markers LC3II and p62. Briefly: Induction of autophagy in brain of mice (western blot LC3, p62). In kind it is in vivo, mouse. Particulars: single oral administration 50 mg/kg. As to the method:
In order to investigate whether mTOR inhibition by Cpd. 3 and Cpd. 8 induces autophagy—the essential mechanism for huntingtin aggregate clearance-in the brain, BALB/c nude mice were treated with Cpd. 3 and Cpd. 8 as described in sample 5.
(A western blot detects proteins with antibodies after separation by electrophoresis.)

Data set [2] relates to LC3-II in STHdh^Q7/Q7 and STHdh^Q111/Q111 cells. Briefly: Induction of autophagy in STHdh cells (LC3-II, western blot). In kind it is cell-based, mouse. The settings on record: striatal cells, 4 hours, presence and absence of Bafilomycin A. Here is the method: In order to test whether Cpd. 3 and Cpd. 8 inhibit mTOR signaling and induce autophagy in neuronal cell models of HD, treatment of STHdh^Q111/Q111 and STHdh^Q7/Q7 cells was employed. […] Cells were seeded in 10 cm dishes. When cells were about 80% confluent, cells were differentiated and treated with compounds at the same time. Cells were treated with Cpd. 3 (200 nM, 400 nM, 1230 nM), Cpd. […] At the end of incubation time cells were washed with cold PBS buffer and lysed with 200 μl of RIPA buffer supplemented with 4% Complete protease inhibitor (Roche, Switzerland) and 10% PhosStop (Roche, Switzerland). After 30 min of incubation on ice, lysates were vortexed, centrifuged (20 min, 4° C., 16000 rpm) and supernatants were collected. Protein concentration was determined as described above. 30 μg of protein per sample was analyzed by western blot as described above using the following primary antibodies:
In order to detect levels of LC3-II, an autophagy marker in autophagosomes, cell treatment was performed in the presence and absence of Bafilomycin A, an inhibitor of autophagosome degradation. Thus compounds lead to accumulation of LC3-II levels when autophagy is induced. Cpd. 3 (FIG. 6C) and Cpd. […] For Cpd. […] Cpd.

Data set [3] has as its system Tsc1GFAP knockout mice. Briefly: Electrographic seizures in Tsc1 GFAP conditional knockout mice.
Experimental: Tsc1 mice belonging to either sex were acclimated to the environment, examined, handled, and weighed prior to initiation of the study to assure adequate health and suitability and to minimize non-specific stress associated with human handling. During the course of the study, 12/12 light/dark cycles were maintained. The room temperature was maintained between 20 and 23° C. with a relative humidity maintained around 50%. Food and water were provided ad libitum for the duration of the study. Each mouse was randomly assigned to designated treatment groups. The dosing was performed during the animals' light cycle phase.
Aseptic technique was used throughout the surgical procedures described below. […] Adequate plane of anesthesia was insured by the lack of a withdrawal response to toe pinch and a visible change in the breathing rate. The mouse head was immobilized in a stereotaxic frame with a nose piece that supplied the anesthetic continuously. Ophthalmic ointment was applied to the eyes to prevent drying of the cornea. […]
EEG was recorded using 10× or 100× gain pre-amplifiers. […]
Simultaneously, videographic recording was made through this period to provide a data stream for behavioral evaluation of the mice as needed. After the recording period was completed, individual EEG traces were evaluated for aberrant EEG activity. […]
Data set [4] is described as follows: PK in Sprague Dawley (SD) rats. It is filed as in vivo, rat. Here is the method: A single oral administration of cpd. 3, 10 mg/kg was given to female SD rats in a vehicle consisting of DMSO/HPBCD 20% (10/90). Animals were housed in controlled environment and enclosures provided sterile and adequate space with bedding material, food and water, environmental and social enrichment (group housing). Rats were randomized according to their individual body weight, treated and blood, brain and liver were collected and snap frozen at the following time points: 0.5, 2, 4 and 8 hours. Blood (approximately 500-700 μL, collected via cardiac puncture under anesthesia) was immediately transferred into tubes containing lithium-heparin as anticoagulant (Ref: T MLH, Venoject®, Terumo). Tubes were centrifuged at 1,300 g for 10 minutes at +4° C. The resulting plasma was collected and snap frozen in liquid nitrogen and stored at −80° C. until analysis.
Compound concentrations were detected by HPLC-MS/MS. The calibration curves were drawn using standards of known concentrations.

Data set [5] relates to mTOR signaling cascade (phosphorylation of S6rP and AKT). Briefly: Target engagement in brain and thigh muscle (western blot). Particulars: single oral 50 mg/kg. In kind it is in vivo, mouse. Here is the method: Tissue was snap frozen in liquid nitrogen and stored at −80° C. Tissue was thawed and lysed in RIPA buffer 1 ml/half brain. Complete protease inhibitor and PhosStop phosphatase inhibitor (Roche) was added to the buffer before lysis. Tissue was homogenized manually and centrifuged twice at 16000 rpm, 4° C. for 20 minutes. Supernatant was frozen with 10% glycerol at −80° C. Protein concentration was performed using Bradford reagent. For western blot analysis of AKT and S6rP phosphorylation, 30 μg of protein was denatured with β-mercaptoethanol at 95° C. and separated on SDS page gels at 100 V. Then proteins were transferred to a nitrocellulose membrane (Bio-Rad, USA) at 80 V. Non-specific binding was blocked with 5% bovine serum albumin (BSA) (Sigma-Aldrich, USA). Membranes were incubated over night with primary antibody dissolved in TBST, 5% BSA at 4° C. and with secondary antibody coupled to horseradish peroxidase (GE Healthcare, UK) for 1 hour at RT and washed. Imaging of protein bands was performed using Luminol (Biozym, Hamburg, Germany. On a Li-Cor Odyssey FC reader. Quantification of S6-phosphorylation was determined with the same imaging system.
The following antibodies were used: • AKT, P-AKT (S473), S6rP, P-S6rP(S235/236): Cell Signaling (UK) • β-actin: Sigma Aldrich, USA

Data set [6] deals with 51Q-HTT-Exon1-eGFP transfected HEK cells. Briefly: Filter trap assay of mutHTT aggregates. The settings on record: 8 hours; Cpd. 3 400, 1230 nM; Cpd. 8 130, 1230 nM; INK128 100 nM; Rapamycin 400 nM. In kind it is cell-based, human. As to the method:
HEK cells were transiently transfected with pcDNA3.1/V5-His vector from Clontech (Mountain View, USA) containing the expression sequence for Exon1 of HTT with a 19Q (no aggregation) or 51Q extension and enhanced green fluorescence protein (eGFP) tag using Attractene Transfection Reagent (Qiagen, Netherlands). 1×10^6 cells were seeded in a 6 well plate. On the next day 2 μg DNA were mixed with 95.5 μl transfection media and 4.5 μl transfection reagent. After an incubation time of 15 min the mixture was added to the cells. After 72 hours cells were harvested or fixed for analysis.
HEK cells transfected with 19Q- or 51Q-HTT-Exon1-eGFP were treated with DMSO control. 51Q-HTT-Exon I-eGFP HEK cells form aggregates. These cells were treated with Cpd. 3 (400, 1230 nM), Cpd. […] After 30 min incubation on ice, cells were homogenized (Dounce Homogenizer, Thermo Fisher, USA). 50 μg of protein solution in PBS was supplemented with 2% SDS (Roth, Germany). Samples were sucked through a nitrocellulose membrane (0.45 μm) and washed twice with PBS buffer.

The subject of data set [7] is pPKB S473 in A2058 cells. Briefly: In-cell Western blot, pPKB S473. The settings on record: Homo sapiens, treated for 1 hour, normalized to α-tubulin. It is filed as cell-based.
Experimental: (§1) Cells are fixed with 4% paraformaldehyde for 30 minutes at room temperature, washed 2 times with 1% BSA in PBS, permeabilized with 0.1% Triton X-100 in PBS/1% BSA for 30 minutes at room temperature and blocked with 5% goat serum in PBS/1% BSA/0.1% Triton X-100 for 30 minutes at room temperature. […] Cells are washed 3 times 5 minutes with PBS/1% BSA/0.1% triton and plate scanned with the Odyssey Infrared Scanning system using both 700 and 800 nm channels. […] To correct for background staining in the data analysis wells are treated only with secondary antibodies.
(§2) For data analysis the mean background signal from channel 700 nm and 800 nm are subtracted from each signal in channel 700 nm and 800 nm, respectively.
(§3) IC50 values of each compound are determined by plotting the normalized pPBK S473 and pS6 S235/S236 signals, respectively, versus the compound concentrations (in logarithmic scale) and then by fitting a sigmoidal dose-response curve with variable slope to the data using GraphPad™ Prism.
Data set [8] relates to pS6 S235/S236 in A2058 cells. Briefly: In-cell Western blot, pS6 S235/S236. It is filed as cell-based. The settings on record: Homo sapiens, A2058, 1 h, treated for 1 hour, normalized to α-tubulin.
Experimental: as §1, §2, §3
Where [9] appears, read: female, Sprague-Dawley, plasma, rat, po, 10 mg/kg, single.

Like-named read-outs stand apart in the source and are kept apart here.

One may read the Tmax as the time at which the peak concentration occurs. One may read the AUC as the area under the concentration-time curve, a measure of exposure. A low value points to low exposure. For orientation: Cmax means the maximum level reached in the sampled fluid or tissue. One may read the IC50 as the midpoint of a concentration-inhibition curve.

For the compound `Nc1cc(C(F)F)c(-c2nc(N3C4CCC3COC4)nc(N3C4CCC3COC4)n2)cn1` [Compound 3, 5-(4-(3-oxa-8-azabicyclo[3.2.1]octan-8-yl)-6-(3-oxa-8-azabicyclo[3.2.1]octan-8-yl)-1,3,5-triazin-2-yl)-4-(difluoromethyl)pyridin-2-amine], in data set [1], the “autophagic marker LC3II in brain” value was “time-dependent increase” and the “autophagic marker p62 in brain” value is recorded as “decrease”. Besides, in data set [2], the “autophagy (LC3-II levels)” value is recorded as “induced autophagy in striatal cells”. Moreover, the Body weight result in data set [3] (TSC1 GFAP mice, during treatment) was “higher towards the end of the study”. Moreover, the “effect on spontaneous electrographic seizures” value in data set [3] (Tsc1 GFAP mice, chronic treatment) was “strongly reduce spontaneous seizures”. In data set [4] (SD rats, single oral 10 mg/kg), the oral bioavailability entry is “good oral bioavailability” and the “penetration into the brain” value is listed as “excellent penetration into the brain”. In addition, the Tmax in data set [4] (female, Sprague-Dawley, brain, rat, po, 10 mg/kg, single, read-out: Brain Tmax) was found to be 30 min. Besides, in data set [4] (setting [9]), the AUC amounted to 400 ng·h/mL and the Cmax is 1400 ng/mL. For the same compound, the Tmax in data set [4] (female, Sprague-Dawley, plasma, rat, po, 10 mg/kg, single, read-out: Plasma Tmax) was determined as 30 min. Further, in data set [4] (rat, po, 10 mg/kg, single), the “Brain AUC” value was determined as 2500 ng·h/mL and the “Brain Cmax” value turned out to be 1.3 µg/g. Also, the “phosphorylation of S6rP and AKT in brain and thigh muscle” value in data set [5] (B57BL/6J mice) is “significantly reduced phosphorylation of S6rP and AKT”. In data set [5] (mice, 30 minutes to 8 hours), the “S6 phosphorylation in brain lysates” value was “reduction of S6 phosphorylation” and the “S6 phosphorylation in thigh muscle lysates” value is reported as “reduction of S6 phosphorylation”. For the same compound, the “mutHTT aggregates (filter trap)” value in data set [6] was “significant reduction of cytotoxic mutHTT aggregates”.

As for `C[C@H]1COCCN1c1nc(-c2cnc(N)cc2C(F)F)nc(N2CCOCC2)n1` [Compound 8, (S)-4-(difluoromethyl)-5-(4-(3-methylmorpholino)-6-morpholino-1,3,5-triazin-2-yl)pyridin-2-amine], the IC50 in data set [7] came out at 74 nM; in data set [8], 68 nM.
